From ChEMBL document CHEMBL1139505, “Synthesis and structure-activity-relationships of 1H-imidazo[4,5-c]quinolines that induce interferon production” (2005)

System: not listed separately
Assay: Minimum effective concentration required to induce interferon (IFN) production in human peripheral blood mononuclear cells (hPBMC)
Assay type: functional
Details: read-out: MEC
`CC(C)Cn1cnc2c(N)nc3cc(O)ccc3c21` gave a minimal effective concentration of 0.5 µg/mL.
For `CCCCCCc1nc2c(N)nc3ccccc3c2n1CC(C)C`, the minimal effective concentration was 0.5 µg/mL.
`CC(C)Cn1cnc2c(N)nc3c(O)cccc3c21` showed a minimal effective concentration of 1 µg/mL.
`Cc1nc2c(N)nc3ccccc3c2n1CC(C)C` gave a minimal effective concentration of 0.05 µg/mL.
`Nc1nc2ccccc2c2c1ncn2CCCCc1ccccc1` gave a minimal effective concentration of 0.1 µg/mL.
`CCc1nc2c(N)nc3ccccc3c2n1CC(C)(C)O` showed a minimal effective concentration of 0.05 µg/mL.
`CCCn1cnc2c(N)nc3ccccc3c21` showed a minimal effective concentration of 0.5 µg/mL.
Compound `CC(C)Cn1c(Cc2ccccc2)nc2c(N)nc3ccccc3c21` has a minimal effective concentration of 0.05 µg/mL.
Work on `CC(C)Cc1nc2c(N)nc3ccccc3c2n1CC(C)(C)O` yielded a minimal effective concentration of 0.01 µg/mL.
`CC(C)Cn1c(CCc2ccccc2)nc2c(N)nc3ccccc3c21` showed a minimal effective concentration of 1 µg/mL.
In the case of `Cc1nc2c(N)nc3ccccc3c2n1CC(C)(C)O`, the minimal effective concentration is reported as 0.05 µg/mL.
In the case of `CCCc1nc2c(N)nc3ccccc3c2n1CC(C)C`, the minimal effective concentration is reported as 0.05 µg/mL.
In the case of `CCCCc1nc2c(N)nc3ccccc3c2n1CC(C)C`, the minimal effective concentration is reported as 0.01 µg/mL.
Work on `CCCCc1nc2c(N)nc3ccccc3c2n1-c1ccccc1` yielded a minimal effective concentration of 0.5 µg/mL.
`CCCCCCCn1cnc2c(N)nc3ccccc3c21` gave a minimal effective concentration of 0.5 µg/mL.
`CC(C)n1cnc2c(N)nc3ccccc3c21` showed a minimal effective concentration of 0.5 µg/mL.
Work on `Nc1[nH]c2ccccc2c2ncnc1-2` yielded a minimal effective concentration of 0.5 µg/mL.
For `Nc1nc2ccccc2c2c1ncn2Cc1ccccc1`, the minimal effective concentration was 0.1 µg/mL.
For `CC(C)(O)Cn1cnc2c(N)nc3ccccc3c21`, the minimal effective concentration was 0.5 µg/mL.
`CC(O)Cn1cnc2c(N)nc3ccccc3c21` (stereo unspecified) gave a minimal effective concentration of 0.5 µg/mL.
With `COc1ccc2c(c1)nc(N)c1ncn(CC(C)C)c12` the minimal effective concentration was 1 µg/mL.
For `CCCCCn1cnc2c(N)nc3ccccc3c21`, the minimal effective concentration was 0.5 µg/mL.
`CCn1cnc2c(N)nc3ccccc3c21` showed a minimal effective concentration of 0.5 µg/mL.
In the case of `Nc1nc2ccccc2c2c1ncn2CC(O)CO` (stereo unspecified), the minimal effective concentration is reported as 5 µg/mL.
`CCCCCCn1cnc2c(N)nc3ccccc3c21` showed a minimal effective concentration of 0.5 µg/mL.
For `Nc1nc2ccccc2c2c1ncn2CCO`, the minimal effective concentration was 0.5 µg/mL.
With `CC(C)Cn1c(COc2ccccc2)nc2c(N)nc3ccccc3c21` the minimal effective concentration was 0.1 µg/mL.
`CCCCCCCc1nc2c(N)nc3ccccc3c2n1CC(C)C` gave a minimal effective concentration of 1 µg/mL.
In the case of `Cn1cnc2c(N)nc3ccccc3c21`, the minimal effective concentration is reported as 0.5 µg/mL.
`CC(C)Cn1cnc2c(N)nc3ccccc3c21` [IMIQUIMOD] gave a minimal effective concentration of 0.5 µg/mL.
In the case of `CCCCCc1nc2c(N)nc3ccccc3c2n1CC(C)C`, the minimal effective concentration is reported as 0.05 µg/mL.
For `CCCCn1cnc2c(N)nc3ccccc3c21`, the minimal effective concentration was 0.5 µg/mL.
`Cc1ccc2c(c1)nc(N)c1ncn(CC(C)C)c12` showed a minimal effective concentration of 0.5 µg/mL.
`CCc1nc2c(N)nc3ccccc3c2n1CC(C)C` showed a minimal effective concentration of 0.05 µg/mL.
`Nc1nc2ccccc2c2c1ncn2CCc1ccccc1` gave a minimal effective concentration of 0.5 µg/mL.

Species on record: Homo sapiens
Assay: Minimum effective concentration required to induce interferon (IFN) production in human peripheral blood mononuclear cells (hPBMC); NI = no induction at highest concentration (5.0 ug/mL)
Assay type: functional
Details: not given
With `Cc1cccc2c1nc(N)c1ncn(CC(C)C)c12` the MEC was “No induction”.
In the case of `Nc1nc2ccccc2c2c1ncn2CCCc1ccccc1`, the MEC is reported as “No induction”.
In the case of `CC(C)Cn1c(-c2ccccc2)nc2c(N)nc3ccccc3c21`, the MEC is reported as “No induction”.
For `CC(C)Cn1c(C(F)(F)F)nc2c(N)nc3ccccc3c21`, the MEC was “No induction”.
For `COc1ccc2nc(N)c3ncn(CC(C)C)c3c2c1`, the MEC was “No induction”.
With `COc1nc2c(N)nc3ccccc3c2n1CC(C)C` the MEC was “No induction”.
In the case of `CC(C)Cn1cnc2c(N)nc3ccc(Br)cc3c21`, the MEC is reported as “No induction”.
With `Nc1nc2ccccc2c2c1ncn2-c1ccccc1` the MEC was “No induction”.
In the case of `CC(C)Cn1cnc2c(N)nc3ccc(Cl)cc3c21`, the MEC is reported as “No induction”.
In the case of `CC(C)Cn1cnc2c(O)nc3ccccc3c21`, the MEC is reported as “No induction”.
In the case of `CC(C)Cn1cnc2cnc3ccccc3c21`, the MEC is reported as “No induction”.
With `CC(C)Cn1cnc2c(N)nc3ccc(O)cc3c21` the MEC was “No induction”.
In the case of `COc1cccc2c1nc(N)c1ncn(CC(C)C)c12`, the MEC is reported as “No induction”.
In the case of `CSc1nc2ccccc2c2c1ncn2CC(C)C`, the MEC is reported as “No induction”.
For `CC(C)Cn1c(Oc2ccccc2)nc2c(N)nc3ccccc3c21`, the MEC was “No induction”.
For `CCCCCCCCCCCCCCCCn1cnc2c(N)nc3ccccc3c21`, the MEC was “No induction”.
For `Cc1ccc2nc(N)c3ncn(CC(C)C)c3c2c1`, the MEC was “No induction”.
For `CC(C)Cn1cnc2c(N)nc3ccc(N)cc3c21`, the MEC was “No induction”.
In the case of `CNc1nc2ccccc2c2c1ncn2CC(C)C`, the MEC is reported as “No induction”.
In the case of `CCCCCCCCn1cnc2c(N)nc3ccccc3c21`, the MEC is reported as “No induction”.
For `Cc1cccc2nc(N)c3ncn(CC(C)C)c3c12`, the MEC was “No induction”.
With `CC(C)Cn1cnc2c(Cl)nc3ccccc3c21` the MEC was “No induction”.
In the case of `CC(C)Cn1cnc2c(NC(=O)c3ccccc3)nc3ccccc3c21`, the MEC is reported as “No induction”.
For `CC(C)Cn1cnc2c(N)nc3ccc([N+](=O)[O-])cc3c21`, the MEC was “No induction”.
With `COc1nc2ccccc2c2c1ncn2CC(C)C` the MEC was “No induction”.
With `CC(C)(C)n1cnc2c(N)nc3ccccc3c21` the MEC was “No induction”.
